{"source": "patent EP3184514A1", "about": "“AUTOPHAGY INHIBITORS” (Deutsches Krebsforschungszentrum, priority 2015, dated 2017)", "key": {"GST-tagged LC3B": {"target": "T1, GST-tagged LC3B (Homo sapiens, UniProt Q9GZQ8)", "T1 construct": "made in house; host or cells: E. coli Rosetta (DE3)", "assay": "GST-pulldown with purified GST-LC3B and lysates of treated cells", "conditions": "HEK293T cells treated 100 µM, 1 hour; remaining binding compared to DMSO control", "description": "A gene encoding for human LC3B protein inserted in a pET-GST expression vector was used as a template. Rosetta (DE3) competent cells were transformed by started procedure, plated on an LB agar plate with ampicillin (100 µg/ml) and left overnight at 37 °C. Overnight culture was prepared from a single colony and shaken at 180 rpm at 37 °C. LB medium with ampicillin was inoculated with overnight culture (10 ml per 500 ml of LB) and shaken until the optical density at 600 nm (OD600) reached a value of approximately 0.6. Protein expression was then induced with 400 µM IPTG and further incubated for 4 hours. Bacterial culture was centrifuged for 20 minutes at 6000 rpm at 4 °C. The pellet was then resuspended in lysis buffer (20 mM TRIS-HCl pH 7.5, 10 mM EDTA, 5 mM EGTA, 150 mM NaCl, 0.5 % NP40, 1 % Triton X-100, 1 mM DTT, 2 mg/ml lysozyme, 0.05 U/µl benzonase, 1x protease inhibitor cocktail). Lysate was then stored at -20 °C over night. Sample was thawed in water bath and sonicated on ice (40 % amplitude, 30 seconds pulse/30 seconds pause cycle). Lysate was centrifuged at 10000xg at 4 °C for half an hour. Meanwhile, 500 µl of glutathione sepharose beads was equilibrated with lysis buffer and then added to the supernatant. The mixture was incubated and rotated at room temperature for 2 hours. After binding of the protein to the beads, beads were spun down at 500xg at 4 °C for 5 minutes. […]"}, "LC3B": {"system": "LC3B", "assay": "NMR titration (1H-15N HSQC, chemical shift perturbations)", "format": "binding", "conditions": "10 fold excess of compound, before prolonged incubation"}}, "data": [{"smiles": "Brc1ccc(CSC2=NCN(Cc3cccnc3)CN2)cc1", "note": "[Compound I-1, 6-((4-bromobenzyl)thio)-3-(pyridin-3-ylmethyl)-1,2,3,4-tetrahydro-1,3,5-triazine]", "values": [{"measurement": "binding of p62 and ATG13 to GST-tagged LC3B", "setting": "GST-tagged LC3B", "result": "approximately 50%"}, {"measurement": "chemical shift perturbations (CSP) of LC3B", "setting": "LC3B", "result": "does not induce any significant CSPs"}]}]}
